According to patent publication US20220305136A1, “ANTI-CTLA4 CONJUGATES” (Ascendis Pharma Oncology Division A/S, priority 2019, published 2022):

Tests used:
[1] = Plasma pharmacokinetics of CTLA-4 mAB in Wistar rats; format: in vivo; settings: n=3
Method: This study was performed in order to investigate the plasma pharmacokinetics of CTLA-4 mAB in Wistar rats following subcutaneous administration of transient CTLA-4 mAB-linker-hydrogel prodrug 29b or following subcutaneous or intravenous administration of free CTLA-4 mAB. Animals (n=3 per group) received either a single SC injection of a 29b (1 mg/kg CTLA-4 mAB equivalents) in the neck region or a single SC injection in the neck region or IV injection in the tail vein of an CTLA-4 mAB formulation (1 mg/kg CTLA-4 mAB). At selected time points, 200 μL blood were collected in L^1-Heparin tubes and processed to plasma by centrifugation at 3,000 g for 10 minutes at 4° C.
CTLA-4 mAB concentrations in rat plasma were determined with a commercial ELISA setup obtained from BioVision Inc. (CA, USA, order number E4384-100). The manufacturer's instructions were followed with minor changes to the protocol. Specifically, the plasma samples were used undiluted (except for samples above the upper limit of quantification which were diluted with blank plasma prior to the measurement) and the sample incubation time was prolonged to 60 minutes.
Calibration standards of CTLA-4 mAB in blank plasma were prepared as follows: thawed L^1-Heparin Wistar rat plasma was homogenized. The free CTLA-4 mAB formulation was spiked into blank plasma at concentrations between 5,000 ng/mL and 50 ng/mL with additional higher and lower anchor points. These solutions were used for the generation of a calibration curve. Calibration curves were analyzed via a 4-parameter logarithmic fit and 1/Y^2 weighted. The determined CTLA-4 mAB plasma concentrations are depicted in Table 1.

MC38 tumor cells [2] = test: In vivo anti-tumor efficacy, MC38 tumor bearing mice (Example 28); design: species or system C57BL/6 mice with the human CTLA-4 gene knocked in; settings: CTLA-4 mAB 4 x 210 μg intraperitoneal days 0, 4, 8, 12, 29b single 840 μg intratumoral
Method: The study was conducted in female C57BL/6 mice with the human CTLA-4 gene knocked into the endogenous CTLA-4 locus with an age of 6-11 weeks at the day of tumor inoculation. This model is also known as a Human Genetically Engineered Mouse Model or HuGEMM. Mice were subcutaneously implanted with 1×10^6 MC38 tumor cells in the right flank. When tumors to be injected were grown to a mean tumor volume of ˜65 mm^3, mice were randomized into treatment cohorts (day 0) and treated with either: 1) a single 50 μL intratumoral injection of control hydrogel 30 or 2) a single 50 μL intratumoral injection of 840 μg of CTLA-4 mAB-linker-hydrogel prodrug 29b or 3) four total 200 μL intraperitoneal doses of 210 μg given on Days 0, 4, 8, and 12 of CTLA-4 mAB. Hydrogels were administered as suspensions in 20 mM succinate, 135 mM NaCl, 0.01% Tween-20, pH 4.0 buffer. Following treatment initiation, anti-tumor efficacy was assessed by determination of tumor volumes at various time points from tumor size measurements with a caliper. Tumor volumes were calculated according to the formula:
Tumor volume=(L×W^2)×0.5 where L is the length of the tumor and W the width (both in mm). Mice were removed from the study once tumors were greater than 3000 mm^3.

MC38 tumor cells [3] = test: In vivo anti-tumor efficacy, MC38 tumor bearing mice (Example 33); design: species or system C57BL/6 mice with the human CTLA4 gene knocked in
Method: The study was conducted in female C57BL/6 mice with the human CTLA4 gene knocked into the endogenous CTLA4 locus with an age of 6-11 weeks at the day of tumor inoculation. This model is also known as a Human Genetically Engineered Mouse Model or HuGEMM. Mice were subcutaneously implanted with 1×10^6 MC38 tumor cells in the right flank. When tumors to be injected were grown to a mean tumor volume of ˜65 mm^3, mice were randomized into treatment cohorts (day 0) and treated with either: 1) a single 50 μL intratumoral injection of control hydrogel 30 or 2) four total 200 μL intraperitoneal doses of 18 μg given on days 0, 4, 8, and 12 of free CTLA-4 mAB, or 3) a single 50 μL intratumoral injection of 840 μg of CTLA-4 mAB-linker-hydrogel prodrug 29b or 3) a single 50 μL intratumoral injection of 72 μg of CTLA-4 mAB-linker-hydrogel prodrug 29c. […] Following treatment initiation, anti-tumor efficacy was assessed by determination of tumor volumes at various time points from tumor size measurements with a caliper. Tumor volumes were calculated according to the formula: Tumor volume=(L×W^2)×0.5 where L is the length of the tumor and W the width (both in mm). […] Percent tumor growth inhibition (TGI) was calculated according to the formula: [1−(Mean Tumor Volume in treated animals)/(Mean Tumor Volume in control animals)]*100.

tumor immune cells = test: Flow cytometric profiling of tumor immune cells; format: in vivo, C57BL/6 mice with the human CTLA4 gene knocked in; settings: day 7
Method: (§1) The study was conducted in female C57BL/6 mice with the human CTLA4 gene knocked into the endogenous CTLA4 locus with an age of 6-11 weeks at the day of tumor inoculation. This model is also known as a Human Genetically Engineered Mouse Model or HuGEMM. Mice were subcutaneously implanted with 1×10^6 MC38 tumor cells in the right flank. When tumors to be injected were grown to a mean tumor volume of ˜65 mm^3, mice were randomized into treatment cohorts (day 0) and treated with either: 1) a single 50 μL intratumoral injection of control hydrogel 30 or 2) four total 200 μL intraperitoneal doses of 18 μg given on days 0, 4, 8, and 12 of free CTLA-4 mAB, or 3) a single 50 μL intratumoral injection of 840 μg of CTLA-4 mAB-linker-hydrogel prodrug 29b or 3) a single 50 μL intratumoral injection of 72 μg of CTLA-4 mAB-linker-hydrogel prodrug 29c. Hydrogels were administered as suspensions in 20 mM succinate, 135 mM NaCl, 0.01% Tween20, pH 4.0 buffer.
Mice were sacrificed 7 days after randomization (D0). Following sacrifice, blood, spleen and tumor were isolated. Spleen samples were dissociated mechanically to generate single suspensions. Tumor samples were enzymatically and mechanically dissociated to generate single cell suspensions. Cell suspensions from spleen and tumor were centrifuged at 300 g for 5 minutes and 2×10^6 cells were used for staining. For whole blood, approximately 100 μL was used for staining. Cells were resuspended in FACS buffer with 1 μg/ml Fc-Block and incubated at 4° C. for 10 minutes in the dark. Surface marker antibody mixtures in FACS buffer were added to each sample and samples were incubated in the dark at 4° C. for 30 minutes. Red blood cell lysis buffer (Bio-gems) was added if needed and cells were further incubated at 4° C. for 10 minutes. Cells were washed twice with FACS buffer then fixed and permeabilized for 30 minutes at room temperature with Fix/Perm buffer (eBioscience). Cells were washed twice in Permeabilization Buffer and stained with intracellular antibodies in Permeabilization buffer for 30 minutes at room temperature. Cells were washed twice in FACS buffer and acquired in the presence of 123count Ebeads (eBioscience). After collection, FACS data was analyzed using FlowJo Version 10.6.1. Compensation was digitally adjusted using single antibody-stained beads, single antibody-stained cells, and fluorescence minus one (FMO) controls. CD4^+ T cells were gated as live, intact CD45+ CD3+ CD4+ events. Tregs were gated as the CD25+ FOXP3+ subset of CD4 T cells. […] The change in the mean percentage of positive cells for indicated populations relative to control treatment was calculated by the formula: mean percentage of positive cells in treated animals—mean percentage of positive cells in control treated animals.

blood immune cells = test: Flow cytometric profiling of blood immune cells; format: in vivo, C57BL/6 mice with the human CTLA4 gene knocked in; settings: day 7; doses as E70
Method: as §1
(§2) Mice were sacrificed 7 days after randomization (D0). Following sacrifice, blood, spleen and tumor were isolated. Spleen samples were dissociated mechanically to generate single suspensions. Tumor samples were enzymatically and mechanically dissociated to generate single cell suspensions. Cell suspensions from spleen and tumor were centrifuged at 300 g for 5 minutes and 2×10^6 cells were used for staining. For whole blood, approximately 100 μL was used for staining. Cells were resuspended in FACS buffer with 1 μg/ml Fc-Block and incubated at 4° C. for 10 minutes in the dark. Surface marker antibody mixtures in FACS buffer were added to each sample and samples were incubated in the dark at 4° C. for 30 minutes. Red blood cell lysis buffer (Bio-gems) was added if needed and cells were further incubated at 4° C. for 10 minutes. Cells were washed twice with FACS buffer then fixed and permeabilized for 30 minutes at room temperature with Fix/Perm buffer (eBioscience). Cells were washed twice in Permeabilization Buffer and stained with intracellular antibodies in Permeabilization buffer for 30 minutes at room temperature. Cells were washed twice in FACS buffer and acquired in the presence of 123count Ebeads (eBioscience). After collection, FACS data was analyzed using FlowJo Version 10.6.1. Compensation was digitally adjusted using single antibody-stained beads, single antibody-stained cells, and fluorescence minus one (FMO) controls. CD4^+ T cells were gated as live, intact CD45+ CD3+ CD4+ events. Tregs were gated as the CD25+ FOXP3+ subset of CD4 T cells. CD8^+ T cells were gated as live, intact CD45+ CD3+ CD8+ events. Subgates were then defined using the controls mentioned above. The change in the mean percentage of positive cells for indicated populations relative to control treatment was calculated by the formula: mean percentage of positive cells in treated animals—mean percentage of positive cells in control treated animals.

spleen immune cells = test: Flow cytometric profiling of spleen immune cells; format: in vivo, C57BL/6 mice with the human CTLA4 gene knocked in; settings: day 7; doses as E70
Method: as §1, §2

CTLA-4 mAB: Monoclonal antibody CTLA-4 mAB (AMO-M6104, CAS No. 477202-00-9) obtained from AbMole Bioscience Inc.
mean CTLA-4 mAB plasma concentration ([1]; 1 h, 1 mg/kg CTLA-4 mAB (equivalents), subcutaneous, LLOQ 50 ng/mL): 170 ng/mL | mean CTLA-4 mAB plasma concentration ([1]; 1 h, 1 mg/kg intravenous): 18000 ng/mL | mean CTLA-4 mAB plasma concentration ([1]; 4 h, 1 mg/kg CTLA-4 mAB (equivalents), subcutaneous, LLOQ 50 ng/mL): 600 ng/mL | mean CTLA-4 mAB plasma concentration ([1]; 4 h, 1 mg/kg intravenous): 14000 ng/mL | mean CTLA-4 mAB plasma concentration ([1]; 24 h, 1 mg/kg CTLA-4 mAB (equivalents), subcutaneous): 3700 ng/mL | mean CTLA-4 mAB plasma concentration ([1]; 24 h, 1 mg/kg intravenous): 9600 ng/mL | mean CTLA-4 mAB plasma concentration ([1]; 32 h, 1 mg/kg CTLA-4 mAB (equivalents), subcutaneous): 4800 ng/mL | mean CTLA-4 mAB plasma concentration ([1]; 32 h, 1 mg/kg intravenous): 7500 ng/mL | mean CTLA-4 mAB plasma concentration ([1]; 48 h, 1 mg/kg CTLA-4 mAB (equivalents), subcutaneous): 6200 ng/mL | mean CTLA-4 mAB plasma concentration ([1]; 48 h, 1 mg/kg intravenous): 6000 ng/mL | mean CTLA-4 mAB plasma concentration ([1]; 72 h, 1 mg/kg CTLA-4 mAB (equivalents), subcutaneous): 6900 ng/mL | mean CTLA-4 mAB plasma concentration ([1]; 72 h, 1 mg/kg intravenous): 4900 ng/mL | mean CTLA-4 mAB plasma concentration ([1]; 96 h, 1 mg/kg CTLA-4 mAB (equivalents), subcutaneous): 6100 ng/mL | mean CTLA-4 mAB plasma concentration ([1]; 96 h, 1 mg/kg intravenous): 4000 ng/mL | mean CTLA-4 mAB plasma concentration ([1]; 168 h, 1 mg/kg CTLA-4 mAB (equivalents), subcutaneous): 5700 ng/mL | mean CTLA-4 mAB plasma concentration ([1]; 168 h, 1 mg/kg intravenous): 3100 ng/mL | Mean Tumor Volume (mm3) Day 20 (MC38 tumor cells [2]): 60.5 mm3 | Percent Tumor Growth Inhibition (MC38 tumor cells [3]; day 20, vs control hydrogel 30, doses as E66): 97.3% | Mean Tumor Volume (mm3) (MC38 tumor cells [3]; day 20, CTLA-4 mAB 4 x 18 μg intraperitoneal days 0, 4, 8, 12, 29b single 840 μg intratumoral, 29c single 72 μg intratumoral): 57.1 mm3 | Increase in Percentage Positive from control hydrogel 30: Tumor CD44++ CD62L− of CD4s (tumor immune cells; CTLA-4 mAB 18 μg doses IP, 29b 840 μg IT, 29c 72 μg IT): 10.73% | Increase in Percentage Positive from control hydrogel 30: Tumor CD44++ CD62L− of CD8s (tumor immune cells; doses as E70): 6.51% | Increase in Percentage Positive from control hydrogel 30: Tumor CD69+ of CD4s (tumor immune cells; doses as E70): 2.37% | Increase in Percentage Positive from control hydrogel 30: Tumor ICOS+ of CD4s (tumor immune cells; doses as E70): 13.77% | Increase in Percentage Positive from control hydrogel 30: Blood CD4 of T (blood immune cells): 0.53% | Increase in Percentage Positive from control hydrogel 30: Blood CD25+ of CD4 (blood immune cells): 2.88% | Increase in Percentage Positive from control hydrogel 30: Blood CD44++ CD62L− of CD4s (blood immune cells): 15.28% | Increase in Percentage Positive from control hydrogel 30: Blood CD69+ of CD4 (blood immune cells): 3.35% | Increase in Percentage Positive from control hydrogel 30: Blood CD69+ of Treg (blood immune cells): 3.69% | Increase in Percentage Positive from control hydrogel 30: Blood ICOS+ of CD4s (blood immune cells): 18.80% | Increase in Percentage Positive from control hydrogel 30: Blood ICOS+ of CD8s (blood immune cells): 9.26% | Increase in Percentage Positive from control hydrogel 30: Blood Ki67+ of CD4s (blood immune cells): 14.64% | Increase in Percentage Positive from control hydrogel 30: Blood Treg of CD4 (blood immune cells): 2.22% | Increase in Percentage Positive from control hydrogel 30: Spleen CD4 of T (spleen immune cells): 4.90% | Increase in Percentage Positive from control hydrogel 30: Spleen CD25+ of CD4 (spleen immune cells): 4.38% | Increase in Percentage Positive from control hydrogel 30: Spleen CD69+ of CD4 (spleen immune cells): 8.33% | Increase in Percentage Positive from control hydrogel 30: Spleen CD69+ of Treg (spleen immune cells): 9.17% | Increase in Percentage Positive from control hydrogel 30: Spleen ICOS+ of CD8s (spleen immune cells): 3.18% | Increase in Percentage Positive from control hydrogel 30: Spleen Ki67+ of CD4s (spleen immune cells): 11.75% | Increase in Percentage Positive from control hydrogel 30: Spleen Ki67+ of Tregs (spleen immune cells): 16.97% | Increase in Percentage Positive from control hydrogel 30: Spleen Treg of CD4 (spleen immune cells): 6.64%
